Source: the Kinase Knowledgebase extract (Sharma et al. 2016)

What follows are compounds tested against EGFR (human) (UniProt P00533).
EGFR (human), sequence (P00533 whole entry, looked up): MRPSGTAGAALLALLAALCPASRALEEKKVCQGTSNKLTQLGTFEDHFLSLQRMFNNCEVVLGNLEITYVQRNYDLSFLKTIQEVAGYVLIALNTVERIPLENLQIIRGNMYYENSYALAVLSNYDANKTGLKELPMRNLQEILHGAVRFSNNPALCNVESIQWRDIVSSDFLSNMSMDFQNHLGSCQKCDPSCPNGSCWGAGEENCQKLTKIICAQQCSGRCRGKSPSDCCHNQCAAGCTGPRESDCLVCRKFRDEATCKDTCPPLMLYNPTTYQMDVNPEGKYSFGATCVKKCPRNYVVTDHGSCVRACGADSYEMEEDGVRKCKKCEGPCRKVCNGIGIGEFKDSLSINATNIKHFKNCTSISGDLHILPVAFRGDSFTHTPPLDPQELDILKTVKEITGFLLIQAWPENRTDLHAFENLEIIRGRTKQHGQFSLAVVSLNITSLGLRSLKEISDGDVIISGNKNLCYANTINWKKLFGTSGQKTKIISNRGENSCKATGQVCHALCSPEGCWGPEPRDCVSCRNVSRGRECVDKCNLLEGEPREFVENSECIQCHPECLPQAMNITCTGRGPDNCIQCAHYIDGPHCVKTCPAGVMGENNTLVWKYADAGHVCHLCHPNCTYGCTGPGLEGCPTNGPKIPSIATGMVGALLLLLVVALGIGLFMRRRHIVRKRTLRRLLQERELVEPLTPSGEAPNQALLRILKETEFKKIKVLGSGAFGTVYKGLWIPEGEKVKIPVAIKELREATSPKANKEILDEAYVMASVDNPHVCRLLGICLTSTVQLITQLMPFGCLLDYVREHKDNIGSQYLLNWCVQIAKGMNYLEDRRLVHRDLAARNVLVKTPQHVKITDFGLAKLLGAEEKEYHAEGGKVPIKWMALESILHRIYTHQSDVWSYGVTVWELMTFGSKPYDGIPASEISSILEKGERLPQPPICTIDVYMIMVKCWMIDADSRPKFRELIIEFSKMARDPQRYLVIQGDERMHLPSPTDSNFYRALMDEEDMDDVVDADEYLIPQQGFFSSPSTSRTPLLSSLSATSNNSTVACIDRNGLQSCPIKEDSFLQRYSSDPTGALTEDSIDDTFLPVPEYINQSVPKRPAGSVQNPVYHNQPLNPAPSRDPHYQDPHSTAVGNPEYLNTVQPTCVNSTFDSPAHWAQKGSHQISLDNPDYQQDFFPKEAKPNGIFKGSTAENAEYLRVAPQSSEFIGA

IC50 | Compound
5 nM | CC(=O)NCCNCc1ccc(-c2cc3nccc(Nc4ccc5[nH]ccc5c4)c3s2)cc1
1 nM | c1nc(Nc2ccc3[nH]ccc3c2)c2sc(-c3ccc(NCCN4CCCC4)cc3)cc2n1
8 nM | CC(C)(CO)NCc1ccc(-c2cc3nccc(Nc4ccc5[nH]ccc5c4)c3s2)cc1
5 nM | c1cn(CCCc2ccc(-c3cc4nccc(Nc5ccc6[nH]ccc6c5)c4s3)cc2)cn1
68 nM | c1ccc(-c2cc3nccc(Nc4ccc5[nH]ccc5c4)c3s2)cc1
2 nM | CC(=O)NCCNCc1ccc(-c2cc3ncnc(Nc4ccc5[nH]ccc5c4)c3s2)cc1
1 nM | NC(=O)C1CCN(Cc2ccc(-c3cc4ncnc(Nc5ccc6[nH]ccc6c5)c4s3)cc2)CC1
7 nM | NC(=O)C1CCN(Cc2ccc(-c3cc4nccc(Nc5ccc6[nH]ccc6c5)c4s3)cc2)CC1
39 nM | c1csc(-c2cc3nccc(Nc4ccc5[nH]ccc5c4)c3s2)c1
1 nM | c1cn(CCCc2ccc(-c3cc4ncnc(Nc5ccc6[nH]ccc6c5)c4s3)cc2)cn1
